Calls of active or inactive are those of the source. No cut-off for these calls is given here.
Tests used:
[1] = Acute toxicity in mouse assessed as increase in body weight at 100 to 200 mg/kg,IG and measured upto 14 days; assay type: organism-based; details: in vivo, po, 336 h, dose 100-200 mg/kg, time < 14 day
[2] = test system: HT-29; assay: Anti-apoptotic activity against human HT-29 cells assessed as inhibition of TC (human TNFalpha, cycloheximide) induced apoptosis upto 1 uM pretreated with compound followed by TC stimulation for 36 hrs by CellTiter-Glo Luminescent cell viability assay; assay type: functional, cell-based
[3] = test system: Mus musculus; assay: Anti-inflammatory activity against C57BL/6J mouse model of TNFalpha-induced systemic inflammatory response syndrome (SIRS) assessed as decrease in IL-1beta level in liver at 1.25 to 5 mg/kg,po 2 hrs prior to mTNFalpha and z-VAD-FMK stimulation for 8 hrs by ELISA; assay type: functional, organism-based; details: dose 1.25-5 mg/kg, time 10.0 hrs
[4] = test system: Mus musculus; assay: Anti-inflammatory activity against C57BL/6J mouse model of TNFalpha-induced systemic inflammatory response syndrome (SIRS) assessed as decrease in […] IL-1beta level in heart at 1.25 to 5 mg/kg,po 2 hrs prior to mTNFalpha and z-VAD-FMK stimulation for 8 hrs by ELISA; assay type: functional, organism-based; details: dose 1.25-5 mg/kg, time 10.0 hrs
[5] = Metabolic stability in mouse liver mitochondria assessed as degradation rate at 4 micromol/L and measured upto 240 mins; assay type: ADME; details: 4 h, 4 µM, dose 4 µmol/L
[6] = Acute toxicity in mouse assessed as death at 100 to 200 mg/kg,IG and measured upto 14 days; assay type: organism-based; details: in vivo, po, 336 h, dose 100-200 mg/kg, time < 14 day
[7] = test system: HT-29; assay: Anti-apoptotic activity against human HT-29 cells assessed as inhibition of TC (human TNFalpha, cycloheximide) induced apoptosis upto 20 uM pretreated with compound followed by TC stimulation for 36 hrs by CellTiter-Glo Luminescent cell viability assay; assay type: functional, cell-based
[8] = test system: Mus musculus; assay: Anti-inflammatory activity against C57BL/6J mouse model of TNFalpha-induced systemic inflammatory response syndrome (SIRS) assessed as decrease in serum IL-1beta level at 1.25 to 5 mg/kg,po 2 hrs prior to mTNFalpha and z-VAD-FMK stimulation for 8 hrs by ELISA; assay type: functional, organism-based; details: dose 1.25-5 mg/kg, time 10.0 hrs
[9] = Acute toxicity in mouse assessed as pathological damage in liver at 100 to 200 mg/kg,IG and measured after 14 days by H and E staining based microscopy; assay type: organism-based; details: in vivo, po, 336 h, dose 100-200 mg/kg, time 14 day
[10] = test system: Mus musculus; assay: Anti-inflammatory activity against C57BL/6J mouse model of TNFalpha-induced systemic inflammatory response syndrome (SIRS) assessed as decrease in IL-6 level in intestine at 1.25 to 5 mg/kg,po 2 hrs prior to mTNFalpha and z-VAD-FMK stimulation for 8 hrs by ELISA; assay type: functional, organism-based; details: dose 1.25-5 mg/kg, time 10.0 hrs
[11] = target: T1, Receptor-interacting serine/threonine-protein kinase 1 (Homo sapiens, UniProt Q13546); assay: Binding affinity to recombinant RIPK1 (unknown origin) assessed as dissociation constant incubated for 1 hr by KINOMEscanTM assay
T1 sequence (Q13546 whole entry): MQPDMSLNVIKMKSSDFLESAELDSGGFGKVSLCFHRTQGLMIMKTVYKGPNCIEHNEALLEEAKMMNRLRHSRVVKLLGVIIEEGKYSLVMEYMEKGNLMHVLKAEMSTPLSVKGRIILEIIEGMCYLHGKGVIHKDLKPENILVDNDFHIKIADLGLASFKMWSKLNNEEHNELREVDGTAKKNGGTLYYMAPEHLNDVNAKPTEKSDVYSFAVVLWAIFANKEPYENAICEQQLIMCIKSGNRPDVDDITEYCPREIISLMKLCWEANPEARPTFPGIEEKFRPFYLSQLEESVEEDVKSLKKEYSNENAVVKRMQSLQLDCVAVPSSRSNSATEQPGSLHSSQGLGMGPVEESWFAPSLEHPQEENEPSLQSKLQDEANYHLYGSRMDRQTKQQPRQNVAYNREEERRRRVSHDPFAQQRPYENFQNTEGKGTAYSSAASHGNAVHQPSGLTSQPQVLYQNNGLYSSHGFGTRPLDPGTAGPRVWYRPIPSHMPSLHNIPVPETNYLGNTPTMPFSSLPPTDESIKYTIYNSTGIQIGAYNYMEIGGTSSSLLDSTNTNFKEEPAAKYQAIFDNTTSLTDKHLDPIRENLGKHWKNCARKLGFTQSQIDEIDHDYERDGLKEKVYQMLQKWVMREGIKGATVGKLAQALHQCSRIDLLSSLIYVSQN

[12] = test system: Mus musculus; assay: Anti-inflammatory activity against C57BL/6J mouse model of TNFalpha-induced systemic inflammatory response syndrome (SIRS) assessed as decrease in IL-6 level in kidney at 1.25 to 5 mg/kg,po 2 hrs prior to mTNFalpha and z-VAD-FMK stimulation for 8 hrs by ELISA; assay type: functional, organism-based; details: dose 1.25-5 mg/kg, time 10.0 hrs
[13] = test system: Mus musculus; assay: Anti-inflammatory activity against C57BL/6J mouse model of TNFalpha-induced systemic inflammatory response syndrome (SIRS) assessed as decrease in IL-6 level in heart at 1.25 to 5 mg/kg,po 2 hrs prior to mTNFalpha and z-VAD-FMK stimulation for 8 hrs by ELISA; assay type: functional, organism-based; details: dose 1.25-5 mg/kg, time 10.0 hrs
[14] = test system: Mus musculus; assay: Anti-inflammatory activity against C57BL/6J mouse model of TNFalpha-induced systemic inflammatory response syndrome (SIRS) assessed as increase in body temperature at 1.25 mg/kg,po 2 hrs prior to mTNFalpha and z-VAD-FMK stimulation and measured upto 18 hrs by electric thermometer analysis; assay type: functional, organism-based; details: time 20.0 hrs
[15] = test system: L929; assay: Anti-necroptic activity against mouse L929 cells assessed as inhibition of […] (mouse TNFalpha, z-VAD-FMK) induced necroptosis at 15 to 500 nM pretreated with compound followed by TZ stimulation for 6 hrs by CellTiter-Glo Luminescent cell viability assay; assay type: functional, cell-based; details: dose lower […], dose upper 500.0 nM
[16] = Acute toxicity in mouse assessed as pathological damage in spleen at 100 to 200 mg/kg,IG and measured after 14 days by H and E staining based microscopy; assay type: organism-based; details: in vivo, po, 336 h, dose 100-200 mg/kg, time 14 day
[17] = test system: Mus musculus; assay: Anti-inflammatory activity against C57BL/6J mouse model of TNFalpha-induced systemic inflammatory response syndrome (SIRS) assessed as decrease in IL-1beta level in intestine at 1.25 to 5 mg/kg,po 2 hrs prior to mTNFalpha and z-VAD-FMK stimulation for 8 hrs by ELISA; assay type: functional, organism-based; details: dose 1.25-5 mg/kg, time 10.0 hrs
[18] = target: T2, Receptor-interacting serine/threonine-protein kinase 1 (Homo sapiens) (UniProt Q13546); assay: Inhibition of RIPK1 phosphorylation in TSZ induced human HT-29 cells at 1 to 1000 nM pretreated with compound followed by TSZ stimulation for 6 hrs by Western blot analysis; assay type: cell-based; details: dose 1-1000 nM
T2 sequence (whole entry): T1 sequence (Q13546 whole entry)

[19] = test system: Mus musculus; assay: Anti-inflammatory activity against C57BL/6J mouse model of TNFalpha-induced systemic inflammatory response syndrome (SIRS) assessed as increase in survival rate at 5 mg/kg,po 2 hrs prior to mTNFalpha and z-VAD-FMK stimulation and measured upto 24 hrs; assay type: functional; details: time 26 hrs
[20] = test system: Mus musculus; assay: Anti-inflammatory activity against C57BL/6J mouse model of TNFalpha-induced systemic inflammatory response syndrome (SIRS) assessed as increase in survival rate at 1.25 mg/kg,po 2 hrs prior to mTNFalpha and z-VAD-FMK stimulation and measured upto 24 hrs; assay type: functional; details: time 26 hrs

## O=C(Cc1cccc(OC(F)(F)F)c1)Nc1cc(-c2ccc3nc(NC(=O)C4CC4)sc3c2)ccc1F
[1]
  Activity: Non-Toxic
[2]
  Activity: inactive
[3]
  Activity: inactive
[4]
  Activity: Active
[5]
  Stability: Stable
[6]
  Activity: Non-Toxic
[7]
  Activity: inactive
[8]
  Activity: Active
[9]
  Activity: Non-Toxic
[10]
  Activity: Dose-Dependent Effect
[11]
  Kd: 17 nM
[12]
  Activity: Dose-Dependent Effect
[13]
  Activity: Dose-Dependent Effect
[14]
  Activity: Active
[15]
  Activity: Active
[16]
  Activity: Non-Toxic
[17]
  Activity: Active
[18]
  inhibition: Dose-Dependent Effect
[19]
  survival at 5 mg/kg: 100%
[20]
  survival at 1.25 mg/kg: 70%

— ChEMBL document CHEMBL5370665, “Insight from Linker Investigations: Discovery of a Novel Phenylbenzothiazole Necroptosis Inhibitor Targeting Receptor-Interacting Protein Kinase 1 (RIPK1) from a Phenoxybenzothiazole Compound with Dual RIPK1/3 Targeting Activity” (J Med Chem, 2023)
